Data on one molecule can be found in patent US20170151240A1, “F10 Inhibits Growth of PC3 Xenografts and Enhances the Effects of Radiation Therapy” (WAKE FOREST UNIVERSITY, priority 2014, published 2017).

Data set [1] deals with PC3 cells. The data set is described as follows: Clonogenic survival assay. It is filed as cell-based, human. Particulars: 72 h treatment; for decrease of colony formation relative to control: 10 μM. An excerpt: (§1) Other anti-angiogenic/anti-tumor agents that can be used in conjunction with the compounds, compositions, methods and combination therapy of the present invention include: SD-7784 (Pfizer, USA); cilengitide. […]

Data set [2] addresses T1, thymidylate synthase (TS) (Homo sapiens, UniProt P04818).
T1 construct: endogenous in cells; host or cells: PC3 (human prostate cancer cell line, ATCC)
As to the kind of experiment: TS catalytic activity assay in treated PC3 cells. Particulars: 5-FU 10^−6 M. It is filed as cell-based.
From the text: as §1

For data set [3] the following is noted: once daily, three times per week; higher doses lethal; cited from earlier work.

T1 sequence (P04818 2-313 limits assumed): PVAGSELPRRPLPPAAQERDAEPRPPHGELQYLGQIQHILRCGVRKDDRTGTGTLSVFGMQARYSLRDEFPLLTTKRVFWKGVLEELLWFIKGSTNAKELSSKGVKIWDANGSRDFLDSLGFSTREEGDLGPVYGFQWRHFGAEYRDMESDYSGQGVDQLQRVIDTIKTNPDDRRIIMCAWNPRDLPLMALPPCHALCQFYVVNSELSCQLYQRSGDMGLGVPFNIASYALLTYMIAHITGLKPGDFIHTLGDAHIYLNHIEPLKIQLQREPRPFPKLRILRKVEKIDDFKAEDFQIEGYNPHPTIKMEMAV

As for `O=c1[nH]cc(F)c(=O)[nH]1` [5-FU, 5-fluorouracil], in data set [1] (1 μM), the “PC3 cell colony formation” value is reported as “no effect”. For the same molecule, the “decrease of colony formation relative to control” value in data set [1] is < 50%; in data set [1] (listed as 5FU), “less than 50%”. In addition, the “TS activity relative to control” value in data set [2] (8 and 16 h) is “increased”. Further, the TS activity in data set [2] (48 h timepoint) is ~50 % control. For the same molecule, in data set [3], the maximum tolerated dose is 45 mg/kg/dose.
